{"source": "patent US7833553B2", "about": "“Sulfur-containing proanthocyanidin oligomer compositon and process for producing the same” (Amino Up Chemical Co. Ltd., priority 2003, dated 2010)", "key": {"[1]": {"test": "DPPH radical scavenging effect", "type": "biochemical", "conditions": "60 μM DPPH, room temperature 30 minutes, absorbance 520 nm", "procedure": "100 μl of a DPPH solution (60 μM ethanol solution) was charged in a 96-well microplate and 100 μl of an ethanol solution as a test sample or 100 μl of ethanol as a control was added, and the whole was gently mixed and left to stand at room temperature for 30 minutes. Then, absorbance at 520 nm was measured and a DPPH radical scavenging ability was calculated according to the following formula. 50% effective concentration (EC50) was calculated from the DPPH radical scavenging ability and concentrations of gradually diluted test samples. DPPH radical scavenging ability(%)=[(1−(absorbance of test sample))/(absorbance of control)]×100\n50% effective concentration (EC50) was calculated from DPPH radial scavenging abilities in gradual concentrations of each sample."}, "[2]": {"test": "Superoxide dismutase (SOD)-like activity (SOD Test Wako kit)", "type": "biochemical", "procedure": "With respect to Substances 1 to 4 and Comparative Substances 1 and 2 which were the same as those used in Test Example 1, SOD-like activity was measured using a blood SOD activity measuring kit (SOD Test Wako: manufactured by Wako Pure Chemical Industries, Ltd.). SOD-like activity was calculated according to the following formula and 50% effective concentration (EC50) was calculated based on the relationship with the concentration of test sample. SOD-like activity(%)=[(1−(absorbance of test sample))/(absorbance of control)]×100\nEC50 was calculated from SOD-like activities in gradual concentrations of each sample."}}}
{"substance": "catechin [Comparative Substance 2]", "values": [{"measurement": "EC50 in DPPH radical scavenging", "setting": "[1]", "value": 1.71, "unit": "µg/mL"}, {"measurement": "EC50 in SOD-like activity", "setting": "[2]", "value": 62.0, "unit": "µg/mL"}]}
